Reference: EP4786459A1, “BENZENE RING-CONTAINING COMPOUND HAVING ANALGESIC EFFECT, PREPARATION METHOD THEREFOR, AND USE THEREOF” (West China Hospital, Sichuan University, priority 2023, dated 2025)

How the values were obtained:
[1] = Loss of tail withdrawal reflex (LOTWR) in rats, single intravenous injection, dose escalation: potent analgesic effect and severe adverse reactions; type: in vivo, SD rats; conditions: rat, in vivo, single intravenous injection, minimum dose resulting in serious adverse reactions / minimum effective dose, class symbol, read-out: The safety therapeutic index
Experimental: (§1) Using the loss of tail withdrawal reflex (LOTWR) in rats as an indicator, the potent analgesic effect of the compounds according to the present invention was evaluated.
(§2) 1.1 Experimental animals: Adult male SD rats weighing between 220-300 g were selected for the experiment. The rats were housed in sawdust-bedded cages with a temperature of 25±1°C, humidity ranging from 40% to 60%, and a 12-hour light/12-hour dark cycle. Each cage contained no more than 5 rats, with free access to water and food.
(§3) • (1) The compound of the present invention, along with the positive control drug remifentanil and the negative control (vehicle), were administered in fixed volumes. A dose escalation approach was employed to determine the minimum effective dose at which the compound of the present invention produces potent analgesic effects, as well as the minimum dose at which severe adverse reactions first appear. • (2) LOTWR lasting for 30 seconds was used as the criterion for generating potent analgesic effects. During the experiment, drugs were administered via the tail vein of rats, with a dosage volume of 0.6 mL per rat and a dosage rate of 0.02 mL/s. Subsequently, an alligator clip was applied at a distance of 1 cm from the base of the rat's tail, clamping once longitudinally and once transversely before being left in place. Meanwhile, the distal end of the alligator clip was continuously oscillated (30 times/min) to continuously generate stimulation. […] When all results were "no LOTWR" after 10 minutes of testing (5 trials), the test was stopped and recorded as "ineffective." • (3) All compounds would undergo a dose escalation for efficacy evaluation, starting from 1 mg/kg (due to the high potency of remifentanil, the lowest dose was set at 1 µg/kg), followed by 5 mg/kg, 10 mg/kg, 20 mg/kg, and so on (increasing by 20 mg/kg increments after 20 mg/kg). The dose escalation would be stopped when rats show signs of death, and the lowest effective dose and the lowest dose at which severe adverse reactions occur would be recorded throughout the process. In this study, severe adverse reactions are defined as apnea, generalized tonic rigidity, convulsions, opisthotonus, seizures, etc.
(§4) 1.3 Evaluation indicators: the minimum effective dose; the minimum dose resulting in serious adverse reactions; the safety therapeutic index = "the minimum dose resulting in serious adverse reactions" / "the minimum effective dose".

rats = assay: as above; type: in vivo, SD rats; conditions: Rattus norvegicus, single intravenous injection (tail vein), LOTWR lasting for 30 seconds as criterion, class symbol, read-out: The minimum effective dose
Experimental: as §1, §2, §3, §4

SMILES | selectivity ratio [1] | minimal effective dose (rats) [mg/kg]
Cc1ccc(CNC(=O)NCc2ccsc2)c(N(C)C)c1 [Example 1] | 2 to 4 | ≤ 10
Cc1ccc(CNC(=S)NCc2ccsc2)c(N(C)C)c1 [Example 2, 1-(2-(dimethylamino)-4-methylbenzyl)-3-(thiophene-3-ylmethyl)thiourea] | ≤ 2 | ≤ 10
Cc1ccc(CNC(=N)NCc2ccsc2)c(N(C)C)c1 [Example 3, 1-(2-(dimethylamino)-4-methylbenzyl)-3-(thiophen-3-ylmethyl)guanidine] | 2 to 4 | ≤ 10
Cc1ccc(CNC(=NC#N)NCc2ccsc2)c(N(C)C)c1 [Example 4] | ≤ 2 | > 30
Cc1ccc(CNC(=O)OCc2ccsc2)c(N(C)C)c1 [Example 5] | 2 to 4 | ≤ 10
Cc1ccc(COC(=O)NCc2ccsc2)c(N(C)C)c1 [Example 6, 2-(dimethylamino)-4-methylbenzyl(thiophene-3-ylmethyl)carbamate] | 2 to 4 | ≤ 10
Cc1ccc(CNC(=C[N+](=O)[O-])NCc2ccsc2)c(N(C)C)c1 [Example 7] | ≤ 2 | > 30
Cc1ccc(CNc2c(NCc3ccsc3)c(=O)c2=O)c(N(C)C)c1 [Example 8] | ≤ 2 | > 30
Cc1ccc(CNC(=O)NCc2ccoc2)c(N(C)C)c1 [Example 9] | ≤ 2 | 20 to 30
Cc1ccc(CNC(=O)NCc2cccs2)c(N(C)C)c1 [Example 10] | > 4 | ≤ 10
Cc1ccc(CCNC(=O)NCc2ccsc2)c(N(C)C)c1 [Example 11, 1-(2-(dimethylamino)-4-methylphenethyl)-3-(thiophene-3-ylmethyl)urea] | 2 to 4 | ≤ 10
Cc1ccc(CNC(=O)NCCc2ccsc2)c(N(C)C)c1 [Example 12, 1-(2-(dimethylamino)-4-methylbenzyl)-3-(2-(thiophene-3-yl)ethyl)urea] | ≤ 2 | ≤ 10
Cc1ccc(NC(=O)Nc2ccsc2)c(N(C)C)c1 [Example 13] | > 4 | ≤ 10
Cc1ccc(NC(=N)Nc2ccsc2)c(N(C)C)c1 [Example 14] | ≤ 2 | ≤ 10
CN(C)c1cc(O)ccc1CNC(=O)NCc1ccsc1 [Example 15] | > 4 | 10 to 20
[2H]C([2H])([2H])N(c1cc(C)ccc1CNC(=O)NCc1ccsc1)C([2H])([2H])[2H] [Example 17] | 2 to 4 | ≤ 10
Cc1ccc(CNC(=O)NCc2ccsc2)cc1N(C)C [Example 18] | 2 to 4 | ≤ 10
Cc1ccc(CNC(=S)NCc2ccsc2)cc1N(C)C [Example 19, 1-(3-(dimethylamino)-4-methylbenzyl)-3-(thiophene-3-ylmethyl)thiourea] | ≤ 2 | ≤ 10
Cc1ccc(CNC(=N)NCc2ccsc2)cc1N(C)C [Example 20, 1-(3-(dimethylamino)-4-methylbenzyl)-3-(thiophen-3-ylmethyl)guanidine] | ≤ 2 | ≤ 10
Cc1ccc(NC(=N)Nc2ccsc2)cc1N(C)C [Example 21] | > 4 | ≤ 10

SMILES | selectivity ratio [1] | minimal effective dose (rats) [mg/kg]
COC(=O)C(C#N)=C(NCc1ccsc1)NCc1ccc(C)cc1N(C)C [Example 22] | ≤ 2 | > 30
Cc1ccc(CNC(=O)NCc2ccco2)c(N(C)C)c1 [Example 23] | ≤ 2 | > 30
CN(C)c1ccccc1CNC(=O)NCc1ccsc1 [Example 24] | 2 to 4 | 10 to 20
Cc1ccc(CNC(=N)NCc2cccs2)c(N(C)C)c1 [Example 26] | ≤ 2 | > 30
CN(C)c1ccccc1CNC(=O)NCc1cccs1 [Example 27] | > 4 | ≤ 10
CN(C)c1ccccc1CNC(=S)NCc1cccs1 [Example 28] | ≤ 2 | > 30
CN(C)c1cc(C(F)(F)F)ccc1CNC(=O)NCc1cccs1 [Example 29] | ≤ 2 | ≤ 10
CN(C)c1cccc(CNC(=O)NCc2ccsc2)c1 [Example 30] | ≤ 2 | 20 to 30
Cc1ccc(CNC(=O)NCc2cccs2)cc1N(C)C [Example 31] | > 4 | ≤ 10
Cc1ccc(CNC(=S)NCc2cccs2)cc1N(C)C [Example 32] | > 4 | ≤ 10
Cc1ccc(CNC(=N)NCc2cccs2)cc1N(C)C [Example 33] | ≤ 2 | ≤ 10
CN(C)c1cccc(CNC(=O)NCc2cccs2)c1 [Example 34] | ≤ 2 | 20 to 30
Cc1ccc(CNC(=O)NCc2ccoc2)cc1N(C)C [Example 35] | 2 to 4 | 20 to 30
Cc1ccc(CNC(=O)NCc2ccco2)cc1N(C)C [Example 36] | > 4 | ≤ 10
Cc1ccc(CNC(=O)NCc2ccns2)c(N(C)C)c1 [Example 37] | > 4 | ≤ 10
Cc1ccc(CNC(=O)NCc2cncs2)c(N(C)C)c1 [Example 38] | 2 to 4 | 10 to 20
Cc1ccc(CNC(=O)NCc2nccs2)c(N(C)C)c1 [Example 39] | 2 to 4 | 10 to 20
CN(C)c1ccccc1CNC(=O)NCc1ccns1 [Example 41] | ≤ 2 | > 30
Cc1ccc(CNC(=O)NCc2ccno2)c(N(C)C)c1 [Example 42] | ≤ 2 | > 30
Cc1ccc(CNC(=O)NCc2ncc[nH]2)c(N(C)C)c1 [Example 43] | > 4 | 10 to 20

SMILES | selectivity ratio [1] | minimal effective dose (rats) [mg/kg]
COC(=O)CCc1ccc(CNC(=O)NCc2ccsc2)c(N(C)C)c1 [Example 44] | ≤ 2 | 10 to 20
CNC(=O)CCc1ccc(CNC(=O)NCc2ccsc2)c(N(C)C)c1 [Example 45] | 2 to 4 | > 30
Cc1ccc(CNC(=O)NCc2nnn[nH]2)c(N(C)C)c1 [Example 46] | ≤ 2 | > 30
COc1c(N(C)C)cc(CNC(=O)NCc2ccsc2)cc1N(C)C [Example 47] | ≤ 2 | ≤ 10
CN(C)c1ccc(Oc2ccccc2)cc1CNC(=O)NCc1ccsc1 [Example 48] | 2 to 4 | ≤ 10
Cc1ccc(N(C)C)c(CNC(=O)NCc2ccns2)c1 [Example 49] | 2 to 4 | > 30
COC(=O)c1ccc(CNC(=O)NCc2ccc(C)cc2N(C)C)s1 [Example 50] | ≤ 2 | 20 to 30
CCCCc1cc(CNC(=O)NCc2ccc(C)cc2N(C)C)cs1 [Example 51] | 2 to 4 | ≤ 10
CCCCc1cscc1CNC(=O)NCc1ccc(C)cc1N(C)C [Example 52] | 2 to 4 | ≤ 10
CCCCc1ccc(CNC(=O)NCc2ccsc2)c(N(C)C)c1 [Example 53] | ≤ 2 | ≤ 10
Cc1ccc(CNC(=O)NCc2ccsc2)c(N2CCCCC2)c1 [Example 54] | ≤ 2 | ≤ 10
CCN(CC)c1cc(C)ccc1CNC(=O)NCc1ccsc1 [Example 55] | ≤ 2 | ≤ 10
CN(C)c1cc(CCNC(=O)C2COC2)ccc1CNC(=O)NCc1ccsc1 [Example 56] | ≤ 2 | ≤ 10
CNc1cc(C)ccc1CNC(=O)NCc1ccsc1 [Example 57] | ≤ 2 | 10 to 20
Cc1ccc(CNC(=O)NCc2ncc[nH]2)cc1N(C)C [Example 58] | ≤ 2 | > 30
Cc1ccc(NC(=O)NCc2ncc[nH]2)c(N(C)C)c1 [Example 59] | 2 to 4 | 10 to 20
Cc1ccc(NC(=O)NCc2ccns2)c(N(C)C)c1 [Example 60] | ≤ 2 | 10 to 20
Cc1ccc(CNC(=O)Nc2ccns2)c(N(C)C)c1 [Example 61] | ≤ 2 | ≤ 10
Cc1ccc(CNC(=O)NCc2ccccc2)c(N(C)C)c1 [Example 62] | 2 to 4 | 10 to 20
